For the assay, the system named is HCV (Ib) RNA replication. The assay can be described thus: Cell-based luciferase reporter HCV (1b) RNA replication assay (replicon cell lines Huh-7 5.2 and ET). On the set-up: species or system Hepatitis C virus. Conditions: Hepatitis C virus, Huh-7, 96 h, HCV 1b genotype replicon, luciferase readout, 4 days incubation; read-out: EC50_1b. In outline:
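Compounds were tested at eleven concentrations in duplicate over 4 days at 37 °C, 5% CO2. The cells were luciferase-reporter HCV 1b replicon lines 5.2 (NS5A adaptive mutation) or ET (NS4B mutation). Luminescence of lysates was measured, and IC50s were derived by nonlinear curve fitting.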
Turning to `COC(=O)N[C@H](C(=O)N1C[C@@H](C)C[C@H]1c1nc2cc(-c3cc(C)c(-c4ccc5[nH]c([C@@H]6C[C@H](C)CN6C(=O)[C@H](C(C)C)N(C)C(=O)OC)nc5c4)cc3C)ccc2[nH]1)C(C)C` [Compound 276], the EC50 was no more than 5 nM.
Consider `COC(=O)N(C)[C@H](C(=O)N1C[C@@H](C)C[C@H]1c1nc2cc(-c3cc(C)c(-c4ccc5[nH]c([C@@H]6C[C@H](C)CN6C(=O)[C@H](C(C)C)N(C)C(=O)OC)nc5c4)cc3C)ccc2[nH]1)C(C)C` [Compound 277], for which the EC50 is no more than 5 nM.
Turning to `COC(=O)N(C)[C@H](C(=O)N1C[C@@H](C)C[C@H]1c1nc2cc(-c3ccc(-c4ccc5[nH]c([C@@H]6C[C@H](C)CN6C(=O)[C@H](C(C)C)N(C)C(=O)OC)nc5c4)c(F)c3)ccc2[nH]1)C(C)C` [Compound 278], the EC50 was no more than 5 nM.
For the compound `COC(=O)N(C(C)C)[C@H](C(=O)N1C[C@@H](C)C[C@H]1c1nc2cc(-c3ccc(-c4ccc5nc([C@@H]6C[C@H](C)CN6C(=O)[C@H](C(C)C)N(C(=O)OC)C(C)C)[nH]c5c4)cc3)ccc2[nH]1)C(C)C` [Compound 279], the EC50 is no more than 5 nM.
Turning to `COC(=O)N[C@H](C(=O)N1C[C@@H](C)C[C@H]1c1nc2cc(-c3cc(F)c(-c4ccc5[nH]c([C@@H]6C[C@H](C)CN6C(=O)[C@@H](NC(=O)OC)C(C)C)nc5c4)cc3F)ccc2[nH]1)C(C)C` [Compound 280], the EC50 was no more than 5 nM.
`COC(=O)N[C@H](C(=O)N1C[C@@H](C)C[C@H]1c1nc2cc(-c3cc(F)c(-c4ccc5[nH]c([C@@H]6C[C@H](C)CN6C(=O)[C@H](C(C)C)N(C)C(=O)OC)nc5c4)cc3F)ccc2[nH]1)C(C)C` [Compound 281]: the EC50 was no more than 5 nM.
In the case of `COC(=O)N(C)[C@H](C(=O)N1C[C@@H](C)C[C@H]1c1nc2cc(-c3cc(F)c(-c4ccc5[nH]c([C@@H]6C[C@H](C)CN6C(=O)[C@H](C(C)C)N(C)C(=O)OC)nc5c4)cc3F)ccc2[nH]1)C(C)C` [Compound 282], the EC50 was no more than 5 nM.
For `C[C@@H]1CN(c2ccc3nc([C@@H]4CCCN4C(=O)OC(C)(C)C)[nH]c3c2)CCN1c1ccc2nc([C@@H]3CCCN3C(=O)OC(C)(C)C)[nH]c2c1` [Compound 283], the EC50 was greater than 5000 nM.
As for `COC(=O)N[C@H](C(=O)N1C[C@@H](C)C[C@H]1c1nc2cc(-c3ccc(-c4ccc5nc([C@@H]6C[C@H](C)CN6C(=O)[C@H](C(C)C)N(C(=O)OC)C(C)C)[nH]c5c4)cc3)ccc2[nH]1)C(C)C` [Compound 284], the EC50 was no more than 5 nM.
With `COC(=O)N[C@H](C(=O)N1C[C@@H](C)C[C@H]1c1nc2cc(-c3ccc(-c4ccc5[nH]c([C@@H]6C[C@H](C)CN6C(=O)[C@H](C(C)C)N(C)C(=O)OC)nc5c4)cc3F)ccc2[nH]1)C(C)C` [Compound 285], the EC50 was no more than 5 nM.
The result for `COC(=O)N[C@H](C(=O)N1C[C@@H](C)C[C@H]1c1nc2cc(-c3ccc(-c4ccc5[nH]c([C@@H]6C[C@H](C)CN6C(=O)[C@H](C(C)C)N(C)C(=O)OC)nc5c4)c(F)c3)ccc2[nH]1)C(C)C` [Compound 286] reads no more than 5 nM.
Take `COC(=O)N1CCC[C@H]1C(=O)N1C[C@@H](C)C[C@H]1c1nc2cc(-c3ccc(-c4ccc5[nH]c([C@@H]6C[C@H](C)CN6C(=O)[C@@H]6CCCN6C(=O)OC)nc5c4)cc3)ccc2[nH]1` [Compound 287]: the EC50 was no more than 5 nM.
The result for `COC(=O)N[C@H](C(=O)N1C[C@@H](C)C[C@H]1c1nc2cc(-c3ccc(-c4ccc5[nH]c([C@@H]6C[C@H](C)CN6C(=O)[C@@H]6CCCN6C(=O)OC)nc5c4)cc3)ccc2[nH]1)C(C)C` [Compound 288] reads no more than 5 nM; that for `COC(=O)N(C)[C@H](C(=O)N1C[C@@H](C)C[C@H]1c1nc2cc(-c3ccc(-c4ccc5[nH]c([C@@H]6C[C@H](C)CN6C(=O)[C@@H](Nc6ncccn6)C(C)C)nc5c4)cc3)ccc2[nH]1)C(C)C` [Compound 289], no more than 5 nM; that for `COC(=O)N(C)[C@H](C(=O)N1C[C@@H](C)C[C@H]1c1nc2cc(-c3csc4c(-c5ccc6[nH]c([C@@H]7C[C@H](C)CN7C(=O)[C@H](C(C)C)N(C)C(=O)OC)nc6c5)csc34)ccc2[nH]1)C(C)C` [Compound 290], no more than 5 nM.
For the compound `C[C@H]1C[C@@H](c2nc3ccc(-c4ccc(-c5ccc6nc([C@@H]7C[C@H](C)CN7C(=O)OC(C)(C)C)n(C)c6c5)cc4)cc3n2C)N(C(=O)OC(C)(C)C)C1` [Compound 291], the EC50 fell in the range of 5 to 5000 nM.
As to `C[C@H]1C[C@@H](c2nc3ccc(-c4ccc(-c5ccc6nc([C@@H]7C[C@H](C)CN7C(=O)OC(C)(C)C)n(C)c6c5)cc4)cc3[nH]2)N(C(=O)OC(C)(C)C)C1` [Compound 292], the EC50 is 5 to 5000 nM.
The result for `COC(=O)N[C@H](C(=O)N1C[C@@H](C)C[C@H]1c1nc2ccc(-c3ccc(-c4ccc5nc([C@@H]6C[C@H](C)CN6C(=O)[C@@H](NC(=O)OC)C(C)C)n(C)c5c4)cc3)cc2n1C)C(C)C` [Compound 293] reads no more than 5 nM; that for `COC(=O)N[C@H](C(=O)N1C[C@@H](C)C[C@H]1c1nc2ccc(-c3ccc(-c4ccc5nc([C@@H]6C[C@H](C)CN6C(=O)[C@@H](NC(=O)OC)C(C)C)n(C)c5c4)cc3)cc2[nH]1)C(C)C` [Compound 294], no more than 5 nM; that for `COC(=O)N(C)[C@H](C(=O)N1C[C@@H](C)C[C@H]1c1nc2ccc(-c3ccc(-c4ccc5nc([C@@H]6C[C@H](C)CN6C(=O)[C@H](C(C)C)N(C)C(=O)OC)n(C)c5c4)cc3)cc2n1C)C(C)C` [Compound 295], no more than 5 nM.
As to `COC(=O)N(C)[C@H](C(=O)N1C[C@@H](C)C[C@H]1c1nc2ccc(-c3ccc(-c4ccc5nc([C@@H]6C[C@H](C)CN6C(=O)[C@H](C(C)C)N(C)C(=O)OC)n(C)c5c4)cc3)cc2[nH]1)C(C)C` [Compound 296], the EC50 was no more than 5 nM.
Turning to `CCN(C(=O)OC)[C@H](C(=O)N1C[C@@H](C)C[C@H]1c1nc2ccc(-c3ccc(-c4ccc5[nH]c([C@@H]6C[C@H](C)CN6C(=O)[C@@H](NC(=O)OC)C(C)C)nc5c4)cc3)cc2[nH]1)C(C)C` [Compound 297], the EC50 is no more than 5 nM.
As to `COC(=O)N[C@H](C(=O)N1CC(C)(C)C[C@H]1c1nc2cc(-c3ccc(-c4ccc5[nH]c([C@@H]6CC(C)(C)CN6C(=O)[C@@H](NC(=O)OC)C(C)C)nc5c4)cc3)ccc2[nH]1)C(C)C` [Compound 298], the EC50 was no more than 5 nM.
With `COC(=O)N(C)[C@H](C(=O)N1C[C@@H](C)C[C@H]1c1nc2cc(-c3ccc(-c4ccc5[nH]c([C@@H]6C[C@H](C)CN6C(=O)[C@H](C(C)C)N(C)C(=O)OC)nc5c4)c4nsnc34)ccc2[nH]1)C(C)C` [Compound 299], the EC50 was no more than 5 nM.
In the case of `COC(=O)N[C@H](C(=O)N1C(C)CC[C@H]1c1nc2cc(-c3ccc(-c4ccc5[nH]c([C@@H]6CCC(C)N6C(=O)[C@@H](NC(=O)OC)C(C)C)nc5c4)c(C)c3)ccc2[nH]1)C(C)C` (stereo partly shown) [Compound 300], the EC50 was no more than 5 nM.
Regarding `COC(=O)N[C@H](C(=O)N1C(C)CC[C@H]1c1nc2cc(-c3ccc(-c4ccc5[nH]c([C@@H]6CCC(C)N6C(=O)[C@H](C(C)C)N(C)C(=O)OC)nc5c4)cc3)ccc2[nH]1)C(C)C` (stereo partly shown) [Compound 301], the EC50 was no more than 5 nM.
Turning to `CC[C@H]1C[C@@H](c2nc3cc(-c4ccc(-c5ccc6[nH]c([C@@H]7C[C@H](CC)CN7C(=O)[C@@H](NC(C)OC)C(C)C)nc6c5)cc4)ccc3[nH]2)N(C(=O)[C@@H](NC(=O)OC)C(C)C)C1` (stereo partly shown) [Compound 302], the EC50 is no more than 5 nM.
For the compound `COC(=O)N[C@H](C(=O)N1C[C@@H](C)C[C@H]1c1nc2cc(-c3ccc(-c4ccc5[nH]c([C@@H]6C[C@H](C)CN6C(=O)[C@@H](NC(=O)OC)C(C)C)nc5c4)c4nsnc34)ccc2[nH]1)C(C)C` [Compound 304], the EC50 is no more than 5 nM.
The figure for `COC(=O)N[C@H](C(=O)N1C[C@@H](C)C[C@H]1c1nc2cc(-c3ccc(-c4ccc5[nH]c([C@@H]6C[C@H](C)CN6C(=O)[C@H](C(C)C)N6CCOC6=O)nc5c4)cc3)ccc2[nH]1)C(C)C` [Compound 305] is no more than 5 nM; for `CC(C)[C@@H](C(=O)N1C[C@@H](C)C[C@H]1c1nc2cc(-c3ccc(-c4ccc5[nH]c([C@@H]6C[C@H](C)CN6C(=O)[C@H](C(C)C)N6CCOC6=O)nc5c4)cc3)ccc2[nH]1)N1CCOC1=O` [Compound 306] it is no more than 5 nM; for `COC(=O)N[C@H](C(=O)N1C[C@@H](C)C[C@H]1c1nc2cc(-c3cnc(-c4ccc5[nH]c([C@@H]6C[C@H](C)CN6C(=O)[C@@H](NC(=O)OC)C(C)C)nc5c4)cn3)ccc2[nH]1)C(C)C` [Compound 307] it is no more than 5 nM.
Turning to `COC(=O)N[C@H](C(=O)N1[C@H](C)CC[C@H]1c1nc2cc(-c3ccc(-c4ccc5[nH]c([C@@H]6CC[C@@H](C)N6C(=O)[C@@H](NC(=O)OC)C(C)C)nc5c4)cc3)ccc2[nH]1)C(C)C` [Compound 310], the EC50 was no more than 5 nM.
The result for `COC(=O)N[C@H](C(=O)N1[C@H](c2nc3cc(-c4ccc(-c5ccc6nc([C@@H]7CCC(C)(C)N7C(=O)[C@@H](NC(=O)OC)C(C)C)[nH]c6c5)cc4)ccc3[nH]2)CCC1(C)C)C(C)C` [Compound 311] reads no more than 5 nM; that for `COC(=O)N[C@H](C(=O)N1[C@H](C)CC[C@H]1c1nc2cc(-c3ccc(-c4ccc5[nH]c([C@@H]6CC[C@H](C)N6C(=O)[C@@H](NC(=O)OC)C(C)C)nc5c4)cc3)ccc2[nH]1)C(C)C` [Compound 313], no more than 5 nM; that for `COC(=O)N[C@H](C(=O)N1[C@@H](C)CC[C@H]1c1nc2cc(-c3cc(F)c(-c4ccc5[nH]c([C@@H]6CC[C@H](C)N6C(=O)[C@@H](NC(=O)OC)C(C)C)nc5c4)cc3F)ccc2[nH]1)C(C)C` [Compound 314], no more than 5 nM.
`COC(=O)N[C@H](C(=O)N1C[C@@H](C(F)F)C[C@H]1c1nc2cc(-c3ccc(-c4ccc5[nH]c([C@@H]6C[C@H](C(F)F)CN6C(=O)[C@@H](NC(=O)OC)C(C)C)nc5c4)cc3)ccc2[nH]1)C(C)C` [Compound 315]: the EC50 was no more than 5 nM.
The result for `COC(=O)N[C@H](C(=O)N1C[C@@H](C(F)(F)F)C[C@H]1c1nc2cc(-c3ccc(-c4ccc5[nH]c([C@@H]6C[C@H](C(F)(F)F)CN6C(=O)[C@@H](NC(=O)OC)C(C)C)nc5c4)cc3)ccc2[nH]1)C(C)C` [Compound 316] reads no more than 5 nM.
